Measurements: patent publication US12378224B2 (Dong-A Socio Holdings Co., Ltd., priority 2016, dated 2025)

What follows are compounds tested against human MER (528-end) (Homo sapiens (Human), UniProt Q12866) (assay: HTRF Kinase Activity Biochemical Assay (KinEASE-TK)). Settings: 10 uM ATP.
Experimental: For the SAR (structure-activity relationship) and compound screening, HTRF (Homogeneous Time Resolved Fluorescence) kinase activity assay was employed for all MER, AXL and TYRO3 kinases using Cisbio HTRF® KinEASE™-TK kit (Cisbio, USA). The kit includes biotin-labeled TK substrate, streptavidin-XL665, Eu3+-cryptate-labeled TK antibody and HTRF® Detection buffer. There are two main steps in the kinase assay: kinase reaction and detection of phosphorylated substrate. The reaction was carried out in white low volume 384-well plate (Corning, USA) with 25 nL compound in dimethyl sulfoxide in each well. […] Then the reaction was stopped after 1 hour incubation at room temperature by adding 5 uL of HTRF® Detection buffer which also contains 0.375 nM Eu3+-cryptate-labeled TK antibody and 0.062 uM streptavidin-XL665(SA-XL665) to allow for detection of the phosphorylated peptide product. After 1 h incubation at room temperature, the fluorescence intensity was measured with Envision™ plate reader (PerkinElmer, USA). Upon excitation at 340 nm by UV, the energy from Eu3+ donor of the antibody is transferred to the FRET acceptor XL665, and […] emits light at 665 nm. The level of kinase activity was quantified by the HTRF ratio that calculated from the intensity of emission at 665 nm and emission at 620 nm (fluorescence intensity @ 665 nm/fluorescence intensity @ 620 nm×10,000). The recombinant protein of human MER (528-end) was purchased from Carnabio, Japan. The recombinant human AXL (473-end) and TYRO3 (455-end) were purchased from SignalChem, Canada.

human MER (528-end), sequence (Q12866 528-999 limits assumed): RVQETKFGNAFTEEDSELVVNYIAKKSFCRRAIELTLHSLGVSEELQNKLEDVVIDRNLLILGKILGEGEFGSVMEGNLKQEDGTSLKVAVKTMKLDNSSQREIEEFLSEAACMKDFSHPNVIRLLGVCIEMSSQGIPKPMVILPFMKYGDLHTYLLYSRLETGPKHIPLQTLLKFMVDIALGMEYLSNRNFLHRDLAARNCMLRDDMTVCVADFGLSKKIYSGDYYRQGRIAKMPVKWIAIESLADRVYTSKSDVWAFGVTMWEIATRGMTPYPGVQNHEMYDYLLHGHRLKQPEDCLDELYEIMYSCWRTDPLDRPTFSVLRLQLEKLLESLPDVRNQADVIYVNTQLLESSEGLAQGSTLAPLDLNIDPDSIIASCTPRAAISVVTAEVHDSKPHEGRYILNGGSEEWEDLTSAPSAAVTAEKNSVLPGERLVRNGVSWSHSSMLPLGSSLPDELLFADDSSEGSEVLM

IC50	Structure (SMILES)
> 1000 nM	Cc1cc(OC(=O)N2CC[C@@H](NC(=O)c3cc(-c4cnn(C)c4)cnc3N)C2)ccc1Cl [Example 86, 4-chloro-3-methylphenyl (R)-3-(2-amino-5-(1-methyl-1H-pyrazol-4-yl)nicotinamido)pyrrolidine-1-carboxylate]
> 1000 nM	Cn1cc(-c2cnc(N)c(C(=O)N[C@@H]3CCN(C(=O)Oc4cccc(C#N)c4)C3)c2)cn1 [Example 87, 3-cyanophenyl (R)-3-(2-amino-5-(1-methyl-1H-pyrazol-4-yl)nicotinamido)pyrrolidine-1-carboxylate]
> 1000 nM	Cn1cc(-c2cnc(N)c(C(=O)N[C@@H]3CCN(C(=O)Oc4ccc(Cl)c(Cl)c4)C3)c2)cn1 [Example 88, 3,4-dichlorophenyl (R)-3-(2-amino-5-(1-methyl-1H-pyrazol-4-yl)nicotinamido)pyrrolidine-1-carboxylate]
> 1000 nM	Cn1cc(-c2cnc(N)c(C(=O)N[C@@H]3CCN(C(=O)Oc4ccc(N)c(Cl)c4)C3)c2)cn1 [Example 89, 4-amino-3-chlorophenyl (R)-3-(2-amino-5-(1-methyl-1H-pyrazol-4-yl)nicotinamido)pyrrolidine-1-carboxylate]
100 to 1000 nM	CCc1ccc(OC(=O)N2CC[C@@H](NC(=O)c3cc(-c4cnn(C)c4)cnc3N)C2)cc1 [Example 93, 4-ethylphenyl (R)-3-(2-amino-5-(1-methyl-1H-pyrazol-4-yl)nicotinamido)pyrrolidine-1-carboxylate]
> 1000 nM	Cc1ccc(OC(=O)N2CC[C@@H](NC(=O)c3cc(-c4cnn(C)c4)cnc3N)C2)cc1C [Example 94, 3,4-dimethylphenyl (R)-3-(2-amino-5-(1-methyl-1H-pyrazol-4-yl)nicotinamido)pyrrolidine-1-carboxylate]
> 1000 nM	Cn1cc(-c2cnc(N)c(C(=O)N[C@@H]3CCN(C(=O)Oc4ccccc4O)C3)c2)cn1 [Example 98, 2-hydroxyphenyl (R)-3-(2-amino-5-(1-methyl-1H-pyrazol-4-yl)nicotinamido)pyrrolidine-1-carboxylate]
> 1000 nM	Cn1cc(-c2cnc(N)c(C(=O)N[C@@H]3CCN(C(=O)Oc4cccc(O)c4)C3)c2)cn1 [Example 101, 3-hydroxyphenyl (R)-3-(2-amino-5-(1-methyl-1H-pyrazol-4-yl)nicotinamido)pyrrolidine-1-carboxylate]
100 to 1000 nM	Cn1cc(-c2cnc(N)c(C(=O)N[C@@H]3CCN(C(=O)Oc4ccc5ccccc5c4)C3)c2)cn1 [Example 103, naphthalen-2-yl (R)-3-(2-amino-5-(1-methyl-1H-pyrazol-4-yl)nicotinamido)pyrrolidine-1-carboxylate]

More lines, now with the values behind:

Structure (SMILES)	IC50
Cn1cc(-c2cnc(N)c(C(=O)N[C@@H]3CCN(C(=O)Oc4ccc(S(C)(=O)=O)cc4)C3)c2)cn1 [Example 77, 4-(methylsulfonyl)phenyl (R)-3-(2-amino-5-(1-methyl-1H-pyrazol-4-yl)nicotinamido)pyrrolidine-1-carboxylate]	> 1000 nM
CN(C)Cc1ccccc1OC(=O)N1CC[C@@H](NC(=O)c2cc(-c3cnn(C)c3)cnc2N)C1 [Example 78, 2-((dimethylamino)methyl)phenyl (R)-3-(2-amino-5-(1-methyl-1H-pyrazol-4-yl)nicotinamido)pyrrolidine-1-carboxylate]	> 1000 nM
Cn1cc(-c2cnc(N)c(C(=O)N[C@@H]3CCN(C(=O)OCc4ccccc4)C3)c2)cn1 [Example 80, benzyl (R)-3-(2-amino-5-(1-methyl-1H-pyrazol-4-yl)nicotinamido)pyrrolidine-1-carboxylate]	> 1000 nM
Nc1ncc(-c2ccc(CO)cc2)cc1C(=O)N[C@@H]1CCN(C(=O)Oc2cccc(-c3ccccc3)c2)C1 [Example 81, [1,1′-biphenyl]-3-yl (R)-3-(2-amino-5-(4-(hydroxymethyl)phenyl)nicotinamido)pyrrolidine-1-carboxylate]	100 to 1000 nM
Nc1ncc(-c2ccc(C(=O)N3CCOCC3)cc2)cc1C(=O)N[C@@H]1CCN(C(=O)Oc2cccc(-c3ccccc3)c2)C1 [Example 83, [1,1′-biphenyl]-3-yl (R)-3-(2-amino-5-(4-(morpholine-4-carbonyl)phenyl)nicotinamido)pyrrolidine-1-carboxylate]	100 to 1000 nM
Nc1ncc(-c2ccc(F)c(F)c2)cc1C(=O)N[C@@H]1CCN(C(=O)Oc2cccc(-c3ccccc3)c2)C1 [Example 84, [1,1′-biphenyl]-3-yl (R)-3-(2-amino-5-(3,4-difluorophenyl)nicotinamido)pyrrolidine-1-carboxylate]	> 1000 nM
Nc1ncc(Br)cc1C(=O)N[C@@H]1CCN(C(=O)Oc2cccc(-c3ccccc3)c2)C1 [Example 85, [1,1′-biphenyl]-3-yl (R)-3-(2-amino-5-bromonicotinamido)pyrrolidine-1-carboxylate]	> 1000 nM
Cn1cc(-c2cnc(N)c(C(=O)N[C@@H]3CCN(C(=O)Oc4cc(F)cc(F)c4)C3)c2)cn1 [Example 90, 3,5-difluorophenyl (R)-3-(2-amino-5-(1-methyl-1H-pyrazol-4-yl)nicotinamido)pyrrolidine-1-carboxylate]	> 1000 nM
Cc1cc(C)cc(OC(=O)N2CC[C@@H](NC(=O)c3cc(-c4cnn(C)c4)cnc3N)C2)c1 [Example 91, 3,5-dimethylphenyl (R)-3-(2-amino-5-(1-methyl-1H-pyrazol-4-yl)nicotinamido)pyrrolidine-1-carboxylate]	> 1000 nM
COC(=O)c1ccccc1OC(=O)N1CC[C@@H](NC(=O)c2cc(-c3cnn(C)c3)cnc2N)C1 [Example 92, 2-(methoxycarbonyl)phenyl (R)-3-(2-amino-5-(1-methyl-1H-pyrazol-4-yl)nicotinamido)pyrrolidine-1-carboxylate]	> 1000 nM
CN1CCC(n2cc(-c3cnc(N)c(C(=O)N[C@@H]4CCN(C(=O)Oc5cccc(-c6ccccc6)c5)C4)c3)cn2)CC1 [Example 96, [1,1′-biphenyl]-3-yl (R)-3-(2-amino-5-(1-(1-methylpiperidin-4-yl)-1H-pyrazol-4-yl)nicotinamido)pyrrolidine-1-carboxylate]	100 to 1000 nM
Cn1cc(-c2cnc(N)c(C(=O)N[C@@H]3CCN(C(=O)Oc4cc5ccccc5cc4O)C3)c2)cn1 [Example 97, 3-hydroxynaphthalen-2-yl (R)-3-(2-amino-5-(1-methyl-1H-pyrazol-4-yl)nicotinamido)pyrrolidine-1-carboxylate]	> 1000 nM
Cn1cc(-c2cnc(N)c(C(=O)N[C@@H]3CCN(C(=O)Oc4ccc(Cl)cc4N)C3)c2)cn1 [Example 99, 2-amino-4-chlorophenyl (R)-3-(2-amino-5-(1-methyl-1H-pyrazol-4-yl)nicotinamido)pyrrolidine-1-carboxylate]	> 1000 nM
Cn1cc(-c2cnc(N)c(C(=O)N[C@@H]3CCN(C(=O)Oc4cc([N+](=O)[O-])ccc4N)C3)c2)cn1 [Example 100, 2-amino-5-nitrophenyl (R)-3-(2-amino-5-(1-methyl-1H-pyrazol-4-yl)nicotinamido)pyrrolidine-1-carboxylate]	> 1000 nM
Cn1cc(-c2cnc(N)c(C(=O)N[C@@H]3CCN(C(=O)Oc4ccc(Oc5ccccc5)cc4)C3)c2)cn1 [Example 102, 4-phenoxyphenyl (R)-3-(2-amino-5-(1-methyl-1H-pyrazol-4-yl)nicotinamido)pyrrolidine-1-carboxylate]	100 to 1000 nM
